Source: ChEMBL document CHEMBL1201862, “PubChem BioAssay data set” (2004)
The source made the active and inactive calls.

Columns and labels:
[1] = molecular target: Eukaryotic translation initiation factor 4H (Homo sapiens, UniProt Q15056); test: inhibitors of translation initiation factor eIF4H – SAR follow-up (AID 435011); assay type: functional
[2] = molecular target: Polyadenylate-binding protein 1 (Homo sapiens, UniProt P11940); test: PABP inhibition in translation initiation, SAR follow-up (AID 435018); assay type: functional
Sequence of Polyadenylate-binding protein 1 (P11940 whole entry): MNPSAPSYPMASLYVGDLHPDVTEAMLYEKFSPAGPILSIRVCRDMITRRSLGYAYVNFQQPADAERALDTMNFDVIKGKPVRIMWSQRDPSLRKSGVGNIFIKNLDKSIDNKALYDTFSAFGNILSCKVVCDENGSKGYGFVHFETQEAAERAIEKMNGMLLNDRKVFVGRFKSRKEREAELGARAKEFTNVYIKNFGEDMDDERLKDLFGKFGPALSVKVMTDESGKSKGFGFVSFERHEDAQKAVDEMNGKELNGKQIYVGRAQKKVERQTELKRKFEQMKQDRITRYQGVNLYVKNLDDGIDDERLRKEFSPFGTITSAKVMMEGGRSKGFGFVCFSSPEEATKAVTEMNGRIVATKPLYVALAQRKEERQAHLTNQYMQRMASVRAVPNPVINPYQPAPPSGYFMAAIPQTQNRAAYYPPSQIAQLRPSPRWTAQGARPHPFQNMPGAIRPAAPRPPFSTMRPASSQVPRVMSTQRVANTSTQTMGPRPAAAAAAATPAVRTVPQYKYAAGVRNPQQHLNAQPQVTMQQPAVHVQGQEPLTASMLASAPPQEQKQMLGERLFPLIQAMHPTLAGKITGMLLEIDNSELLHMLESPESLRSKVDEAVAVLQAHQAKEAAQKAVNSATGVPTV

[3] = THP-1 cell cytotoxicity, dose response, cytotoxicity control for non-replicating M. tuberculosis project (AID 489025); assay type: functional
[4] = HepG2 cell cytotoxicity, dose response, cytotoxicity control for non-replicating M. tuberculosis project (AID 489018); assay type: functional; conditions: Mycobacterium tuberculosis
[5] = microbe, parasite or virus in culture; assay type: functional; conditions: Mycobacterium tuberculosis
[6] = molecular target: Bcl-2-like protein 10 (Homo sapiens, UniProt Q9HD36); test: Bcl-B/TR3 peptide binding disruption – biochemical, fluorescence polarization, FITC-TR3 peptide, selectivity assay for Bfl-1 inhibitor project, primary screen (AID 748);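 note: fluorescence polarization from a fluorescein-labelled TR3 peptide binding purified Bcl-B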
[7] = Vero E6 cell cytotoxicity, dose response, cytotoxicity control for non-replicating M. tuberculosis project, secondary assay (AID 492998); assay type: functional, VeroE6; conditions: Vero C1008
[8] = cells; assay type: functional
[9] = molecular target: T1, Corticotropin-releasing factor receptor 2/Corticotropin-releasing factor-binding protein (Homo sapiens, UniProt P24387+Q13324); test: activators of CRF receptor 2 with binding protein – uHTS hits, confirmation (AID 602473); assay type: functional; conditions: read-out: EC50_Mean
T1 sequence (Q13324 whole entry): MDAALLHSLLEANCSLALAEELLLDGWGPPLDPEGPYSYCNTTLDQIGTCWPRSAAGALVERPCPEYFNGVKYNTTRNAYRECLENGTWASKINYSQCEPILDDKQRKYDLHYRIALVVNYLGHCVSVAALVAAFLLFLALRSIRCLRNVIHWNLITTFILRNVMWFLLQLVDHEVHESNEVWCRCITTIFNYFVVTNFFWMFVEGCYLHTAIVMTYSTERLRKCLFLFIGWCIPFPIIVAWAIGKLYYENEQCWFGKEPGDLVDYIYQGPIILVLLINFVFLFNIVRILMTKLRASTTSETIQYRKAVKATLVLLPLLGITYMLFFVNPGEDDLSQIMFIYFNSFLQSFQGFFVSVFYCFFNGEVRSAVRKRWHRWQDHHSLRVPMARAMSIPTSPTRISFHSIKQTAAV
T1 sequence (P24387 whole entry): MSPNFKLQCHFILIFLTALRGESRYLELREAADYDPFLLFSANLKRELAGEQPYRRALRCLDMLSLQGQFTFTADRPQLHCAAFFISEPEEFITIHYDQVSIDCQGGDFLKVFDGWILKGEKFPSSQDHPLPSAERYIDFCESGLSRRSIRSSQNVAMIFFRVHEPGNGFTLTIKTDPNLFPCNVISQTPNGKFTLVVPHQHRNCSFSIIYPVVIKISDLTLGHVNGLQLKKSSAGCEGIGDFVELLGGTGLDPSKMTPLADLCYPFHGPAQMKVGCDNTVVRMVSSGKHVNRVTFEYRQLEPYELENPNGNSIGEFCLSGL

[10] = molecular target: Intestinal-type alkaline phosphatase (Homo sapiens, UniProt P09923); test: Dose Response confirmation of uHTS hits from a small molecule inhibitors of human intestinal alkaline phosphatase via a luminescent assay. [Related pubchem assays (depositor defined):AID2544, AID2574]; assay type: functional
[11] = molecular target: T2, RNA-binding protein pos-1 (Caenorhabditis elegans, UniProt G5EF15); test: disruptors of C. elegans POS-1 RNA interaction – biochemical, fluorescence polarization, dose response (AID 1964);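 note: purified POS-1 fused to maltose binding protein made in E. coli; potency of compounds blocking POS-1 binding to fluorescent RNA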
T2 sequence (G5EF15 whole entry): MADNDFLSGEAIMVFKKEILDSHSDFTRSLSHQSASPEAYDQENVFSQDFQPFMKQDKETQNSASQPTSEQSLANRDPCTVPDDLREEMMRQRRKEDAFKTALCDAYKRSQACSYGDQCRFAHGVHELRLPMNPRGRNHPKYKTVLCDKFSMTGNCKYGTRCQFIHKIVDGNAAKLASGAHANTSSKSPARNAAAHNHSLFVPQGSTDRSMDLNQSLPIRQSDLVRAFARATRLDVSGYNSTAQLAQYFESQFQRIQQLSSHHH

[12] = molecular target: T3, Voltage-gated N-type calcium channel alpha-1B subunit/Amyloid beta A4 precursor protein-binding family A member 1 (Homo sapiens, UniProt Q00975+Q02410); test: disruptors of Mint-PDZ/N-type channel peptide interaction – biochemical, HTRF, SAR follow-up (AID 2489); assay type: functional
T3 sequence (Q00975 whole entry): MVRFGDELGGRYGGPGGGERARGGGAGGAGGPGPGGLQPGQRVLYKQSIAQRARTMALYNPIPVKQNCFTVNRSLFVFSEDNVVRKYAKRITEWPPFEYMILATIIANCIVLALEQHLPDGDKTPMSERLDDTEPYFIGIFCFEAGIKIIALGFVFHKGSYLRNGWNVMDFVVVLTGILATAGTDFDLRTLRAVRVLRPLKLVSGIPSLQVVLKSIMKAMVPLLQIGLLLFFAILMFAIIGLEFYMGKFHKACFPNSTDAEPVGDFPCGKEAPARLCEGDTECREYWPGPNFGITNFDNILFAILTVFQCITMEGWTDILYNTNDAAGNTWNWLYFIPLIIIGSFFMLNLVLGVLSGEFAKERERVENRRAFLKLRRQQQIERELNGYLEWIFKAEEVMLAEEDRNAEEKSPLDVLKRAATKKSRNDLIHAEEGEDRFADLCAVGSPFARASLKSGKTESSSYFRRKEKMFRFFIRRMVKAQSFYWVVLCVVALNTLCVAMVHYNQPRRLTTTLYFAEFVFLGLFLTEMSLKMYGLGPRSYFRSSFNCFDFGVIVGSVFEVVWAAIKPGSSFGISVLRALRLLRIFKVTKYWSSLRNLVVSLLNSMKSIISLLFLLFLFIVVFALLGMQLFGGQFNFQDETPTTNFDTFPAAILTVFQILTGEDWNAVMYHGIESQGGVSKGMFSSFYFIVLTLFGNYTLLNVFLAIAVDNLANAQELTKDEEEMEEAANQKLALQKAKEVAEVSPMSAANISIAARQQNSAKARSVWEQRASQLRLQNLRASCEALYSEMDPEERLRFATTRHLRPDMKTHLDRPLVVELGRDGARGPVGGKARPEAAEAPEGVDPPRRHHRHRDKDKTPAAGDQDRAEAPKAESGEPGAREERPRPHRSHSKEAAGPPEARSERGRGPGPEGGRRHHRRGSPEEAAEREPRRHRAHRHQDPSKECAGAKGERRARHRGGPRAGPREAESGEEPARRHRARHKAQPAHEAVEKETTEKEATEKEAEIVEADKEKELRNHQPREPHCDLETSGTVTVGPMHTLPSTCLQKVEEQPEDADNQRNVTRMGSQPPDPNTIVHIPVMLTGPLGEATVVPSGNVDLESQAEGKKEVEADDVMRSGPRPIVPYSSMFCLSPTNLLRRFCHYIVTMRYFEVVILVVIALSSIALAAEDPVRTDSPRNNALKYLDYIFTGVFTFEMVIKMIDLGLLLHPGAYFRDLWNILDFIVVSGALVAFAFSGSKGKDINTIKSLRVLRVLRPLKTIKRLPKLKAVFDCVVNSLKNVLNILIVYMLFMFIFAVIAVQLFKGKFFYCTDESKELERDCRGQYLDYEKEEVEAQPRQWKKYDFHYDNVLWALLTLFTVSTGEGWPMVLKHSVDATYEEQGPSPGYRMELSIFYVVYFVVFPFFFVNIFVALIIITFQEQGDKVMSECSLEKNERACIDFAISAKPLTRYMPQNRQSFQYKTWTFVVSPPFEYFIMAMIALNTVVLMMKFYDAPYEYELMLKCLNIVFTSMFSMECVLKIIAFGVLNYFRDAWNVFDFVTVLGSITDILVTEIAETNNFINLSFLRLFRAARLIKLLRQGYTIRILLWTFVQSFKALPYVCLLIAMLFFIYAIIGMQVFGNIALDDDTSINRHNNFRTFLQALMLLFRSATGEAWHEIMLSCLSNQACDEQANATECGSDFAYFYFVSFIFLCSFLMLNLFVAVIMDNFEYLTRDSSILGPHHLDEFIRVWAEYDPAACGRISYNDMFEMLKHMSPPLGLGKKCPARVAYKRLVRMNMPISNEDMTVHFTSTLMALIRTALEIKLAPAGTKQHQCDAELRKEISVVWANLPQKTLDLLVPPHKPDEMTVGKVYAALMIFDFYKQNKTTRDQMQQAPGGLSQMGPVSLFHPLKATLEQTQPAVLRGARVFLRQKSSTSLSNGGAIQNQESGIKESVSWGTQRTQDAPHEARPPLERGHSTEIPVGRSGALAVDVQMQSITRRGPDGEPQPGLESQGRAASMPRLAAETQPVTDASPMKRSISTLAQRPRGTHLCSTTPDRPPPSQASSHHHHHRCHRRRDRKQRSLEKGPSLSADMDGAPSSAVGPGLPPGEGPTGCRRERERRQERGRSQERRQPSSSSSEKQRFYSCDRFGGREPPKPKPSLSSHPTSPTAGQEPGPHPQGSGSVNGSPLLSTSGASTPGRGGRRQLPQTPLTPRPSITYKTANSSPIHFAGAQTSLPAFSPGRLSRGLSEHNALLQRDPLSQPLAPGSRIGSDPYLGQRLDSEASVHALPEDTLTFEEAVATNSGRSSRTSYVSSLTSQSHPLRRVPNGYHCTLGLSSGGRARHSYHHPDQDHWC
T3 sequence (Q02410 whole entry): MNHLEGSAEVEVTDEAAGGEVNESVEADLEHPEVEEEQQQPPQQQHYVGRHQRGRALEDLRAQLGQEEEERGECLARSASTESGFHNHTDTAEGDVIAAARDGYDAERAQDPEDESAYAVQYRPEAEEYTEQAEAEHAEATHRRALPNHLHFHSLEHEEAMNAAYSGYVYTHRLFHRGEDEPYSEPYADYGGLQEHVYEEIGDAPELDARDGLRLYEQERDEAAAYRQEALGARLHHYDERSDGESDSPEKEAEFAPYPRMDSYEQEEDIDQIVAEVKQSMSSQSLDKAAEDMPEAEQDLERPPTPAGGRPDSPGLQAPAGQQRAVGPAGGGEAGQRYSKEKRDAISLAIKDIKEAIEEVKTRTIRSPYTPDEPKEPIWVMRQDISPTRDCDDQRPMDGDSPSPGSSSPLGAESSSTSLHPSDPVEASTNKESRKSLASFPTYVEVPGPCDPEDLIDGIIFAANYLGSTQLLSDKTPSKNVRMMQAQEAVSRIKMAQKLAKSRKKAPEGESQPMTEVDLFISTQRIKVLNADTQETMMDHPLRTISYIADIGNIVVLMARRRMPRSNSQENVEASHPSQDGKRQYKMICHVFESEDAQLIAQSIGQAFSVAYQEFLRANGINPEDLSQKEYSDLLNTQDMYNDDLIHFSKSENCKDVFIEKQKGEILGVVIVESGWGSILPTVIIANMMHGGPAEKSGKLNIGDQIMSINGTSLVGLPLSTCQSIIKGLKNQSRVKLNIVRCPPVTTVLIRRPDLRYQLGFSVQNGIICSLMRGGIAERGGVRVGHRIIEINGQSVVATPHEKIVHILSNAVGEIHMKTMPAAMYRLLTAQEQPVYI

[13] = molecular target: SUMO E1/E2 (Homo sapiens, UniProt P63279+Q9UBE0+Q9UBT2); test: SAR analysis of SUMOylation using HTRF in an in-Vitro dose response assay. [Related pubchem assays (depositor defined):AID2006, AID2011, AID2018, AID2069, AID2658]; assay type: functional
Sequence of SUMO E1/E2 (Q9UBE0 whole entry): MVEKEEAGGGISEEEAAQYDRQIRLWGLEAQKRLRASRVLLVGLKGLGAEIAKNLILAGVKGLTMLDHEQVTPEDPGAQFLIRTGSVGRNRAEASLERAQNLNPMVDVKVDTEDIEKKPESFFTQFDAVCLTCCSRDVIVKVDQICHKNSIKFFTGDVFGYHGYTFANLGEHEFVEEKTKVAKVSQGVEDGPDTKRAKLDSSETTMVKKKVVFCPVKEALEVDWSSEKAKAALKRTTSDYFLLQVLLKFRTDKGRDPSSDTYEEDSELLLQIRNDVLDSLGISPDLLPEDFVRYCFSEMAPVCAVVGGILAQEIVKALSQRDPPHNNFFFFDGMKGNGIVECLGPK
Sequence of SUMO E1/E2 (Q9UBT2 whole entry): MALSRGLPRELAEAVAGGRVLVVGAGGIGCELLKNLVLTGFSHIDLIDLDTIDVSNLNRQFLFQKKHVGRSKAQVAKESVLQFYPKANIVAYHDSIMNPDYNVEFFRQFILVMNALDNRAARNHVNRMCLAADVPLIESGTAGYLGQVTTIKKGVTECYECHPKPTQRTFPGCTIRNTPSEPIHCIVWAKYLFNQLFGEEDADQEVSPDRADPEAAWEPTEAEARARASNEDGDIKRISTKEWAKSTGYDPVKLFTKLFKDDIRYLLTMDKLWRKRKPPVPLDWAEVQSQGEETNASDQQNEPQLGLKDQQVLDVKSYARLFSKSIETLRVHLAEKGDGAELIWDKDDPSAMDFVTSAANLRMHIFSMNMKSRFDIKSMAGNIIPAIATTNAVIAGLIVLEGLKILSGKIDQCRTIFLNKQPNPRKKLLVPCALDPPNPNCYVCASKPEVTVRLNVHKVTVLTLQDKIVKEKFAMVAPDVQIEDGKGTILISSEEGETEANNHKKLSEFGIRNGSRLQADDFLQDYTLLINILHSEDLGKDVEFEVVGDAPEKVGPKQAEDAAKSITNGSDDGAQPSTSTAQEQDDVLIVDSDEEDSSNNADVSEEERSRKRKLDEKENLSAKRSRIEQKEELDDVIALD
Sequence of SUMO E1/E2 (P63279 whole entry): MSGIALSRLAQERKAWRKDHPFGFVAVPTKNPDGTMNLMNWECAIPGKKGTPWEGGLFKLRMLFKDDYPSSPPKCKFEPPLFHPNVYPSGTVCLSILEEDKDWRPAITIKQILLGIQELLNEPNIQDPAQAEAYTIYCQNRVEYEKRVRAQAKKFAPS

[14] = molecular target: T3, Voltage-gated N-type calcium channel alpha-1B subunit/Amyloid beta A4 precursor protein-binding family A member 1; test: disruptors of Mint-PDZ/N-type channel peptide interaction – biochemical, HTRF, set 2, SAR follow-up (AID 434980); assay type: functional

Compound: Cc1cccc(NC(=O)CSc2ccc(-c3ccco3)nn2)c1C
- IC50 [1]: 71.5 µM (active)
- IC50 [2]: > 100 µM (inactive)

Compound: Cc1c(CN(C)C)c2c(n1Cc1ccccc1)C(=O)c1ccc(Br)cc1-2
- CC50 [3]: 10.5 µM (active)
- CC50 [4]: > 20 µM (active)
- CC50 [5]: 22 µM (active)
- IC50 [6]: > 50 µM (inactive)
- CC50 [7]: 15.3 µM (active)
- IC50 [8]: 10.6 µM (active)

Compound: COC(=O)Cn1cc(/C=C2\C(=O)NC(=O)N(c3ccccc3)C2=O)c2ccccc21
- EC50 [9]: 7.64 µM (active)
- IC50 [10]: > 100 µM (inactive)
- EC50 [11]: > 300 µM (inconclusive)

Compound: Cc1ccc(S(=O)(=O)N(C)C)cc1NC(=O)c1cc(-c2ccco2)nc2ccccc12
- IC50 [12]: > 56.8 µM (inactive)
- IC50 [13]: 4.98 µM (active)
- IC50 [14]: > 56.8 µM (inactive)
